How the values were obtained:
Format in all cases: in vivo
[1] = system: Vetch Aphid (Megoura viciae); assay: B.3 Vetch aphid, broad bean leaf disks; details: foliar, 120 h, read-out: mortality in comparison with untreated controls
Method: B.3 Vetch Aphid (Megoura viciae)
For evaluating control of vetch aphid (Megoura viciae) through contact or systemic means the test unit consisted of 24-well-microtiter plates containing broad bean leaf disks.
The compounds were formulated using a solution containing 75% v/v water and 25% v/v DMSO. Different concentrations of formulated compounds were sprayed onto the leaf disks at 2.5 μl, using a custom built micro atomizer, at two replications.
After application, the leaf disks were air-dried and 5-8 adult aphids placed on the leaf disks inside the microtiter plate wells. The aphids were then allowed to suck on the treated leaf disks and incubated at about 23±1° C. and about 50±5% relative humidity for 5 days. Aphid mortality and fecundity was then visually assessed.

[2] = system: Green Peach Aphid (Myzus persicae); assay: B.2 Green peach aphid, artificial diet, systemic; details: 72 h, read-out: mortality in comparison with untreated controls
From the text: B.2 Green Peach Aphid (Myzus persicae)
For evaluating control of green peach aphid (Myzus persicae) through systemic means the test unit consisted of 96-well-microtiter plates containing liquid artificial diet under an artificial mem brane.
The compounds were formulated using a solution containing 75% v/v water and 25% v/v DMSO. Different concentrations of formulated compounds were pipetted into the aphid diet, using a custom built pipetter, at two replications.
After application, 5-8 adult aphids were placed on the artificial membrane inside the microtiter plate wells. The aphids were then allowed to suck on the treated aphid diet and incubated at about 23±1° C. and about 50±5% relative humidity for 3 days. Aphid mortality and fecundity was then visually assessed.

[3] = system: Boll Weevil (Anthonomus grandis); assay: B.5 Boll weevil, insect diet with eggs; details: 120 h, read-out: mortality in comparison with untreated controls
Method: B.5 Boll Weevil (Anthonomus grandis)
For evaluating control of boll weevil (Anthonomus grandis) the test unit consisted of 96-well-microtiter plates containing an insect diet and 5-10 A. grandis eggs.
The compounds were formulated using a solution containing 75% v/v water and 25% v/v DMSO. Different concentrations of formulated compounds were sprayed onto the insect diet at 5 μl, using a custom built micro atomizer, at two replications.
After application, microtiter plates were incubated at about 25±1° C. and about 75±5% relative humidity for 5 days. Egg and larval mortality was then visually assessed.

[4] = system: Diamond back moth (Plutella xylostella); assay: B.1 Diamond back moth, cabbage leaf dip; details: foliar, 72 h, read-out: mortality in comparison with untreated controls
Method: B.1 Diamond back moth (Plutella xylostella)
The active compound was dissolved at the desired concentration in a mixture of 1:1 (vol:vol) distilled water:acetone. Surfactant (Kinetic HV) was added at a rate of 0.01% (vol/vol). The test solution was prepared at the day of use.
Leaves of cabbage were dipped in test solution and air-dried. Treated leaves were placed in petri dishes lined with moist filter paper and inoculated with ten 3rd instar larvae. Mortality was recorded 72 hours after treatment. Feeding damages were also recorded using a scale of 0-100%.

[5] = system: Rice Green Leafhopper (Nephotettix virescens); assay: B.8 Rice green leafhopper, sprayed rice seedlings; details: 72 h, read-out: mortality in comparison with untreated controls
Method: B.8 Rice Green Leafhopper (Nephotettix virescens)
(§1) Rice seedlings were cleaned and washed 24 hours before spraying. The active compounds were formulated in 1:1 acetone:water (vol:vol), and 0.01% vol/vol surfactant (Kinetic HV) was added. Potted rice seedlings were sprayed with 5-6 ml test solution, air dried, covered with Mylar cages and inoculated with 10 adults. Treated rice plants were kept at about 28-29° C. and relative humidity of about 50-60%. Percent mortality was recorded after 72 hours.

[6] = system: Orchid Thrips (Dichromothrips Corbetti); assay: B.7 Orchid thrips, floral immersion; details: Thrips, 72 h, read-out: mortality in comparison with untreated controls
Method: B.7 Orchid Thrips (Dichromothrips Corbetti)
Dichromothrips corbetti adults used for bioassay were obtained from a colony maintained continuously under laboratory conditions. For testing purposes, the test compound is diluted in a 1:1 mixture of acetone:water (vol:vol), plus Kinetic HV at a rate of 0.01% v/v.
Thrips potency of each compound was evaluated by using a floral-immersion technique. All petals of individual, intact orchid flowers were dipped into treatment solution and allowed to dry in Petri dishes. Treated petals were placed into individual re-sealable plastic along with about 20 adult thrips. All test arenas were held under continuous light and a temperature of about 28° C. for duration of the assay. After 3 days, the numbers of live thrips were counted on each petal. The percent mortality was recorded 72 hours after treatment.

[7] = system: Green Soldier Stink Bug (Nezara viridula); assay: B.11 Green soldier stink bug, sprayed soybean pods; details: 120 h, read-out: mortality in comparison with untreated controls
Method: B.11 Green Soldier Stink Bug (Nezara viridula)
The active compound was dissolved at the desired concentration in a mixture of 1:1 (vol:vol) distilled water:acetone. Surfactant (Kinetic HV) was added at a rate of 0.01% (vol/vol). The test solution was prepared at the day of use. Soybean pods were placed in glass Petri dishes lined with moist filter paper and inoculated with ten late 3rd instar N. viridula. Using a hand atomizer, approximately 2 ml solution is sprayed into each Petri dish. Assay arenas were kept at about 25° C. Percent mortality was recorded after 5 days.

[8] = system: Tobacco Budworm (Heliothis virescens); assay: B.4 Tobacco budworm, insect diet with eggs; details: 120 h, read-out: mortality in comparison with untreated controls
Method: B.4 Tobacco Budworm (Heliothis virescens)
For evaluating control of tobacco budworm (Heliothis virescens) the test unit consisted of 96-well-microtiter plates containing an insect diet and 15-25 H. virescens eggs.
The compounds were formulated using a solution containing 75% v/v water and 25% v/v DMSO. Different concentrations of formulated compounds were sprayed onto the insect diet at 10 μl, using a custom built micro atomizer, at two replications.
After application, microtiter plates were incubated at about 28±1° C. and about 80±5% relative humidity for 5 days. Egg and larval mortality was then visually assessed.

[9] = system: Red Spider Mite (Tetranychus kanzawai); assay: B.9 Red spider mite, sprayed cowpea beans; details: 72 h, read-out: mortality in comparison with untreated controls
Method: B.9 Red Spider Mite (Tetranychus kanzawai)
The active compound was dissolved at the desired concentration in a mixture of 1:1 (vol:vol) distilled water:acetone. Add surfactant (Kinetic HV) was added at a rate of 0.01% (vol/vol).The test solution was prepared at the day of use.
Potted cowpea beans of 4-5 days of age were cleaned with tap water and sprayed with 1-2 ml of the test solution using air driven hand atomizer. The treated plants were allowed to air dry and afterwards inoculated with 30 or more mites by clipping a cassava leaf section from rearing population. Treated plants were placed inside a holding room at about 25-27° C. and about 50-60% relative humidity. Percent mortality was assessed 72 hours after treatment.

[10] = system: Orchid Thrips (Dichromothrips Corbetti); assay: CE.3 Orchid thrips, comparative test; details: 96 h, read-out: % mortality in comparison to untreated controls
Method: (§2) The tables show % mortality in comparison to untreated controls.
CE.3 Orchid Thrips (Dichromothrips Corbetti)
Dichromothrips corbetti adults used for bioassay were obtained from a colony maintained continuously under laboratory conditions. For testing purposes, the test compound was diluted to a concentration of 300 ppm (wt compound: vol diluent) in a 1:1 mixture of acetone:water (vol:vol), plus 0.01% vol/vol Kinetic® surfactant.
Thrips potency of each compound was evaluated by using a floral-immersion technique. Plastic petri dishes were used as test arenas. All petals of individual, intact orchid flowers were dipped into treatment solution and allowed to dry. Treated flowers were placed into individual petri dishes along with 10-15 adult thrips. The petri dishes were then covered with lids. All test arenas were held under continuous light and a temperature of about 280C for duration of the assay. After 4 days, the numbers of live thrips were counted on each flower, and along inner walls of each petri dish. The level of thrips mortality was extrapolated from pre-treatment thrips numbers.

[11] = system: Rice Green Leafhopper (Nephotettix virescens); assay: CE.5 Rice green leafhopper, comparative test; details: 72 h, read-out: % mortality in comparison to untreated controls
Method: as §2
CE.5 Rice Green Leafhopper (Nephotettix virescens)
as §1, with “50:50” for “1:1”, “0.1%” for “0.01%”, “(EL 620)” for “(Kinetic HV)”, “5” for “5-6”, “placed in” for “covered with Mylar”

[12] = system: Neotropical Brown Stink Bug (Euschistus heros); assay: B.12 Neotropical brown stink bug, dipped pole bean; details: 120 h, read-out: mortality in comparison with untreated controls
Method: B.12 Neotropical Brown Stink Bug (Euschistus heros)
For evaluating control of Euschistus heros through contact the test unit consisted of 100 ml disposable plastic beakers with transparent lids.
The compounds were formulated using a solution containing 50% water and 50% acetone. 50 ml of different concentrations of formulated compounds or mixtures were prepared in a glass petri dish and used for dipping three 6 cm sections of fresh pole bean. Each treatment was replicated eight times.
After application, the pole bean sections were air-dried and 5 adult E. heros placed in each beaker. The E. heros were then allowed to suck on the treated pole bean sections and incubated at 23±1° C., 50±5% RH for 5 days. E. heros mortality was then visually assessed.

SMILES	mortality at 2500 ppm [1]	mortality at 2500 ppm [2]	mortality at 2500 ppm [3]	mortality at 300 ppm [4]	mortality at 300 ppm [5]	mortality at 300 ppm [6]	mortality at 300 ppm [7]	mortality at 2500 ppm [8]	mortality at 300 ppm [9]	mortality at 10 ppm [10]	mortality at 3 ppm [11]	mortality at 500 ppm [12]
CON1C(=O)C[C@@H](NC(=O)c2ccc(C3=NOC(c4cc(Cl)cc(Cl)c4)(C(F)(F)F)C3)cc2C)C1=O (stereo partly drawn) [Compound I-1-55, 4-[5-(3,5-Dichlorophenyl)-5-(trifluoromethyl)-4H-isoxazol-3-yl]-N-[(3R)-1-methoxy-2,5-dioxo-pyrrolidin-3-yl]-2-methyl-benzamide]	> 75%	> 75%	> 75%	> 75%	> 75%	> 75%	> 75%	> 75%	> 75%	–	–	–
CNN1C(=O)C[C@@H](NC(=O)c2ccc(C3=NOC(c4cc(Cl)cc(Cl)c4)(C(F)(F)F)C3)cc2C)C1=O (stereo partly drawn) [Compound I-1-45, 4-[5-(3,5-Dichlorophenyl)-5-(trifluoromethyl)-4H-isoxazol-3-yl]-2-methyl-N-[(3R)-1-(methylamino)-2,5-dioxo-pyrrolidin-3-yl]benzamide]	> 75%	> 75%	> 75%	> 75%	–	> 75%	> 75%	> 75%	> 75%	–	–	–
O=C(N[C@@H]1CC(=O)N(CC(F)(F)F)C1=O)c1ccc(C2=NOC(c3cc(Cl)c(F)c(Cl)c3)(C(F)(F)F)C2)cc1Cl (stereo partly drawn) [Compound I-1-59]	> 75%	> 75%	> 75%	> 75%	> 75%	> 75%	> 75%	> 75%	> 75%	100%	–	–
O=C(N[C@@H]1CC(=O)N(O)C1=O)c1ccc(C2=NOC(c3cc(Cl)c(F)c(Cl)c3)(C(F)(F)F)C2)cc1Cl (stereo partly drawn) [Compound I-1-33, 2-Chloro-4-[5-(3,5-dichloro-4-fluoro-phenyl)-5-(trifluoromethyl)-4H-isoxazol-3-yl]-N-[(3R)-1-hydroxy-2,5-dioxo-pyrrolidin-3-yl]benzamide]	–	> 75%	> 75%	> 75%	–	> 75%	–	> 75%	–	–	–	–
CCN1C(=O)C[C@@H](NC(=O)c2ccc(C3=NOC(c4cc(Cl)cc(Cl)c4)(C(F)(F)F)C3)cc2C)C1=O (stereo partly drawn) [Compound I-1-51]	> 75%	> 75%	> 75%	> 75%	> 75%	> 75%	> 75%	> 75%	> 75%	100%	90%	–
O=C(N[C@@H]1CC(=O)N(C2CC2)C1=O)c1ccc(C2=NO[C@@](c3cc(Cl)c(F)c(Cl)c3)(C(F)(F)F)C2)cc1Cl [Compound I-1-25, 2-Chloro-N-[(3R)-1-cyclopropyl-2,5-dioxo-pyrrolidin-3-yl]-4-[(5S)-5-(3,5-dichloro-4-fluoro-phenyl)-5-(trifluoromethyl)-4H-isoxazol-3-yl]benzamide]	> 75%	> 75%	> 75%	> 75%	> 75%	> 75%	> 75%	> 75%	> 75%	–	–	> 75%
Cc1cc(C2=NOC(c3cc(Cl)c(F)c(Cl)c3)(C(F)(F)F)C2)ccc1C(=O)N[C@@H]1CC(=O)N(CC(F)(F)F)C1=O (stereo partly drawn) [Compound I-1-57]	> 75%	> 75%	> 75%	> 75%	> 75%	> 75%	–	> 75%	> 75%	100%	–	–
CCN1C(=O)C[C@@H](NC(=O)c2ccc(C3=NOC(c4cc(Cl)c(F)c(Cl)c4)(C(F)(F)F)C3)cc2C)C1=O (stereo partly drawn) [Compound I-1-50]	> 75%	> 75%	> 75%	> 75%	> 75%	> 75%	> 75%	> 75%	> 75%	100%	–	–
